Reference: patent publication US20260216238A1, “TETRATHIOMOLYBDIC ACID FOR USE IN TREATING COPPER METABOLISM-ASSOCIATED DISEASES OR DISORDERS (WILSON DISEASE)” (Alexion Pharmaceuticals, Inc., priority 2023, published 2026)

System: patients with Wilson disease (WD)
Test: UWDRS Part III total score, functional subscale and individual items (neurological examination)
Format: in vivo, human
Conditions: for UWDRS Part III change from baseline, LSM Diff (TTM vs SoC) / UWDRS Part III change from baseline, Mean / UWDRS Part III change from baseline, Median / UWDRS Part III change from baseline, LSM: patients symptomatic at baseline; for UWDRS Part III change from baseline, LSM: MMRM; for UWDRS Part III (0-175) change from baseline, LSM / UWDRS Part III (0-175) change from baseline, Mean / UWDRS Part III functional subscale (0-10) change from baseline, LSM / UWDRS Part III functional subscale (0-10) change from baseline, Mean / UWDRS Part III-arising from chair (0-4) change from baseline, LSM / UWDRS Part III-arising from chair (0-4) change from baseline, Mean / UWDRS Part III-gait (0-4) change from baseline, LSM / UWDRS Part III-gait (0-4) change from baseline, Mean / UWDRS Part III-handwriting (0-4) change from baseline, LSM / UWDRS Part III-handwriting (0-4) change from baseline, Mean / UWDRS Part III-speech (0-4) change from baseline, LSM / UWDRS Part III-speech (0-4) change from baseline, Mean: Study 301 TTM long term set
Description: The UWDRS scoring system was developed specifically for the motor and movement disorders associated with chronic copper neurotoxicity in WD. Some individual items/subscales of the UWDRS Part III (arising from a chair, gait, handwriting, and speech) in addition to the UWDRS Parts I, II, and III overall, were assessed to further define the range of burdensome signs and symptoms of WD, so as to further understand the assessment of treatment effects on patients with WD. The UWDRS scores for consciousness (Part I) and abnormal neurologic examination findings (Part III) will be determined by a trained neurologist rater who is blinded to study treatment randomization. These scores were used to provide a rigorous dataset for evaluating changes from baseline.
Unified Wilson Disease Rating Scale (Parts I, II, and III): The UWDRS is a clinical rating scale designed to evaluate the neurological manifestations of WD that generally can be divided into 3 movement disorder syndromes: dystonic, ataxic, and Parkinsonian syndrome. The UWDRS comprises 3 parts: UWDRS Part I (level of consciousness, item 1), UWDRS Part II (a patient-reported review of daily activity items [disability], items 2 to 11), and UWDRS Part III (a detailed neurological examination, items 12 to 34).
The UWDRS Part I and Part III were assessed by a neurologist who is blinded to the treatment randomization, while UWDRS Part II may be reported to a non-blinded member of the study team by the patient, family member, or caregiver. The UWDRS has not been formally evaluated in adolescents. However, the components of Part I (level of consciousness), Part II (patient or caregiver-reported disability) and Part III (neurologic examination findings) were not fundamentally different between adults and adolescents. Patients aged 12 years and older were expected to be able to comply with UWDRS assessments.
Pooled results from all such participants will be integrated together into one timeline to allow analyses of changes in UWDRS, long-term copper control, and long-term safety laboratory data.
Endpoints (directly measured non-ceruloplasmin-bound copper [dNCC], UWDRS III (rater blinded) total and individual item scores, Clinical Global Impression-Improvement [CGI-I]) were evaluated at baseline (BL) and Week 48 (W48). Normalization (score decrease to 0), improvement (≥1 point decrease), stability (no change), or worsening (≥1 point increase) of total and individual UWDRS III item scores were evaluated at W48.

[1] = Week 48, Cohort 1, Total (Studies 301, 201, 205), n=127

## bis-choline tetrathiomolybdate [TTM]
[1]
  UWDRS-III, Change from Baseline, Median: −1.00
  UWDRS-III, Change from Baseline, Min: −48.0,
  UWDRS-III, Change from Baseline, Q1: −6.00,
  UWDRS-III, Change from Baseline, Q3: 0.00
Week 48, Cohort 1, TTM Total vs SoC Study 301, P-value 0.1295
  UWDRS-III, Change from Baseline, LSM Diff (TTM vs. SoC): −1.97
Week 48, Cohort 1, TTM Total, SoC Study 301
  UWDRS-III, Change from Baseline, LSM: −3.62
Week 48, Cohort 1
  UWDRS Part III change from baseline, LSM Diff (TTM vs SoC): −0.79
  UWDRS Part III change from baseline, Mean: −2.86
  UWDRS Part III change from baseline, Median: −2.00
  UWDRS Part III change from baseline, LSM: −2.68
Week 48, Cohort 2
  UWDRS Part III change from baseline, LSM Diff (TTM vs SoC): 0.05
  UWDRS Part III change from baseline, Mean: −3.10
  UWDRS Part III change from baseline, Median: −3.00
  UWDRS Part III change from baseline, LSM: 1.43
Week 48, Overall
  UWDRS Part III change from baseline, LSM Diff (TTM vs SoC): −0.33
  UWDRS Part III change from baseline, Mean: 2.91
  UWDRS Part III change from baseline, Median: −2.00
  UWDRS Part III change from baseline, LSM: −1.54
Week 48
  UWDRS Part III (0-175) change from baseline, LSM: −2.47
  UWDRS Part III (0-175) change from baseline, Mean: −2.32
  UWDRS Part III functional subscale (0-10) change from baseline, LSM: −0.230
  UWDRS Part III functional subscale (0-10) change from baseline, Mean: −0.235
  UWDRS Part III-arising from chair (0-4) change from baseline, LSM: 0.0
  UWDRS Part III-arising from chair (0-4) change from baseline, Mean: 0.0
  UWDRS Part III-gait (0-4) change from baseline, LSM: −0.26
  UWDRS Part III-gait (0-4) change from baseline, Mean: −0.18
  UWDRS Part III-handwriting (0-4) change from baseline, LSM: −0.1
  UWDRS Part III-handwriting (0-4) change from baseline, Mean: −0.2
  UWDRS Part III-speech (0-4) change from baseline, LSM: −0.1
  UWDRS Part III-speech (0-4) change from baseline, Mean: −0.1
Week 72
  UWDRS Part III (0-175) change from baseline, LSM: −3.47
  UWDRS Part III (0-175) change from baseline, Mean: −3.27
  UWDRS Part III functional subscale (0-10) change from baseline, LSM: −0.253
  UWDRS Part III functional subscale (0-10) change from baseline, Mean: −0.290
  UWDRS Part III-arising from chair (0-4) change from baseline, LSM: −0.1
  UWDRS Part III-arising from chair (0-4) change from baseline, Mean: −0.1
  UWDRS Part III-gait (0-4) change from baseline, LSM: −0.15
  UWDRS Part III-gait (0-4) change from baseline, Mean: −0.12
  UWDRS Part III-handwriting (0-4) change from baseline, LSM: −0.2
  UWDRS Part III-handwriting (0-4) change from baseline, Mean: −0.2
  UWDRS Part III-speech (0-4) change from baseline, LSM: −0.1
  UWDRS Part III-speech (0-4) change from baseline, Mean: −0.1
Week 96
  UWDRS Part III (0-175) change from baseline, LSM: −4.77
  UWDRS Part III (0-175) change from baseline, Mean: −4.09
  UWDRS Part III functional subscale (0-10) change from baseline, LSM: −0.386
  UWDRS Part III functional subscale (0-10) change from baseline, Mean: −0.503
  UWDRS Part III-arising from chair (0-4) change from baseline, LSM: −0.1
  UWDRS Part III-arising from chair (0-4) change from baseline, Mean: −0.2
  UWDRS Part III-gait (0-4) change from baseline, LSM: −0.12
  UWDRS Part III-gait (0-4) change from baseline, Mean: −0.11
  UWDRS Part III-handwriting (0-4) change from baseline, LSM: −0.3
  UWDRS Part III-handwriting (0-4) change from baseline, Mean: −0.4
  UWDRS Part III-speech (0-4) change from baseline, LSM: −0.2
  UWDRS Part III-speech (0-4) change from baseline, Mean: −0.2
Week 120
  UWDRS Part III (0-175) change from baseline, LSM: −5.27
  UWDRS Part III (0-175) change from baseline, Mean: −4.08
  UWDRS Part III functional subscale (0-10) change from baseline, LSM: −0.392
  UWDRS Part III functional subscale (0-10) change from baseline, Mean: −0.410
  UWDRS Part III-arising from chair (0-4) change from baseline, LSM: −0.1
  UWDRS Part III-arising from chair (0-4) change from baseline, Mean: −0.2
  UWDRS Part III-gait (0-4) change from baseline, LSM: 0.04
  UWDRS Part III-gait (0-4) change from baseline, Mean: 0.26
  UWDRS Part III-handwriting (0-4) change from baseline, LSM: −0.3
  UWDRS Part III-handwriting (0-4) change from baseline, Mean: −0.5
  UWDRS Part III-speech (0-4) change from baseline, LSM: −0.2
  UWDRS Part III-speech (0-4) change from baseline, Mean: −0.1
Week 144
  UWDRS Part III (0-175) change from baseline, LSM: −6.38
  UWDRS Part III (0-175) change from baseline, Mean: −5.99
  UWDRS Part III functional subscale (0-10) change from baseline, LSM: −0.489
  UWDRS Part III functional subscale (0-10) change from baseline, Mean: −0.573
  UWDRS Part III-arising from chair (0-4) change from baseline, LSM: −0.2
  UWDRS Part III-arising from chair (0-4) change from baseline, Mean: −0.3
  UWDRS Part III-gait (0-4) change from baseline, LSM: −0.25
  UWDRS Part III-gait (0-4) change from baseline, Mean: 0.00
  UWDRS Part III-handwriting (0-4) change from baseline, LSM: −0.3
